Laboratory results published in patent US8148371B2, “Adenine compound and use thereof” (Dainippon Sumitomo Pharma Co., Ltd., priority 2002, dated 2012).

Key:
cells of rat spleen = assay: cells; type: cell-based, SD rat; conditions: for minimal effective concentration: 24 h, read-out: Minimum effective concentration (interferon inducing activity)
[1] = Metabolic stability on liver S9 of rat; conditions: rat liver S9, test compound 1 μM, 37° C.

Structure (SMILES)	minimal effective concentration (cells of rat spleen)	Residual rate [1]	Minimum effective concentration (interferon inducing activity) (cells of rat spleen)
CCCCOc1nc(N)c2nc(O)n(Cc3ccc(CC(=O)N(C)C)cc3)c2n1 [Example 78, 2-Butoxy-8-hydroxy-9-(4-dimethylcarbamoylmethylbenzyl)adenine]	3e-05 µM		
Nc1nc(CC(=O)N2CCOCC2)nc2c1nc(O)n2Cc1ccccc1 [Example 110, 9-Benzyl-8-hydroxy-2-(morpholinocarbonylmethyl)adenine]	0.1 µM		
CCCCOc1nc(N)c2nc(O)n(Cc3ccc(CCC(=O)OCC)cc3)c2n1 [Example 86, 2-Butoxy-9-(4-ethoxycarbonylethylbenzyl)-8-hydroxyadenine]		18%	
CCCCOc1nc(N)c2nc(O)n(Cc3ccc(CC(=O)OC)o3)c2n1 [Example 81, 2-Butoxy-8-hydroxy-9-(5-methoxycarbonylmethylfurfuryl)adenine]	0.001 µM	2%	
Nc1nc(SCc2cccc(C(=O)O)c2)nc2c1nc(O)n2Cc1ccccc1 [compound 34, 9-Benzyl-8-hydroxy-2-[(3-carboxybenzyl)thio]adenine, reference compound]	0.3 µM		
Nc1nc(OCC(=O)O)nc2c1nc(O)n2Cc1ccccc1 [compound 16, 9-Benzyl-8-hydroxy-2-calboxylmethoxyadenine, reference compound]	1 µM		
CCCCOc1nc(N)c2nc(O)n(Cc3ccc(CC(=O)NC)cc3)c2n1 [Example 77, 2-Butoxy-8-hydroxy-9-(4-methylcarbamoylmethylbenzyl)adenine]	0.0003 µM		
CCCCOc1nc(N)c2nc(O)n(Cc3ccc(SC4CCOC4=O)nc3)c2n1 (stereo not shown) [Example 93]			3 nM
Nc1nc(CCC(=O)O)nc2c1nc(O)n2Cc1ccc(CC(=O)O)cc1 [compound 18, 2-(2-Carboxylethyl)-9-(4-carboxylmethylbenzyl)-8-hydroxyadenine, reference compound]	3 µM		
CCCCOc1nc(N)c2nc(O)n(Cc3ccc(CC(=O)O)o3)c2n1 [compound 19, 2-Butoxy-9-(5-carboxylmethylfurfuryl)-8-hydroxyadenine, reference compound]	0.03 µM		
CCCCOc1nc(N)c2nc(O)n(Cc3ccc(C(C)C(=O)O)cc3)c2n1 (stereo not shown) [compound 31, 2-Butoxy-8-hydroxy-9-[4-(1-carboxyethyl)benzyl]adenine, reference compound]	0.03 µM		
CCCCOc1nc(N)c2nc(O)n(Cc3ccc(OC4CCOC4=O)cc3)c2n1 (stereo not shown) [Example 94, 2-Butoxy-9-{4-(γ-butyrolactonyloxy)benzyl}-8-hydroxyadenine]		2%	
CCCCOC(=O)Cc1nc(N)c2nc(O)n(Cc3ccccc3)c2n1 [Example 107, 9-Benzyl-2-butoxycarbonylmethyl-8-hydroxyadenine]	0.1 µM	3%	
Cc1ccc(Cn2c(O)nc3c(N)nc(CCC(=O)O)nc32)cn1 [compound 17, reference compound]	0.3 µM		
CCCCOc1nc(N)c2nc(O)n(Cc3ccc(C(=O)OCc4ccccc4)cc3)c2n1 [Example 14, 2-Butoxy-8-hydroxy-9-(4-benzyloxycarbonylbenzyl)adenine]		22%	
CCCCOc1nc(N)c2nc(O)n(Cc3ccc(CC(=O)OCCN(C)C)cc3)c2n1.Cl [Example 72, 2-Butoxy-8-hydroxy-9-{4-(2-dimethylaminoethoxycarbonyl)methylbenzyl}adenine hydrochloride]		4%	
CCCCOc1nc(N)c2nc(O)n(Cc3ccc(OC(O)CCC(=O)OC)cc3)c2n1 (stereo not shown) [Example 95, 2-Butoxy-9-{4-(1-hydroxy-3-methoxycarbonylpropoxy)benzyl}-8-hydroxyadenine]	0.001 µM	4%	

Structure (SMILES)	minimal effective concentration (cells of rat spleen)	Residual rate [1]	Minimum effective concentration (interferon inducing activity) (cells of rat spleen)
COC(=O)Cc1ccc(CSc2nc(N)c3nc(O)n(Cc4ccccc4)c3n2)cc1 [Example 106, 9-Benzyl-8-hydroxy-2-[(4-methoxycarbonylmethylbenzyl)thio]adenine]	0.1 µM	3%	
Nc1nc(SCc2ccc(C(=O)O)cc2)nc2c1nc(O)n2Cc1ccccc1 [compound 35, 9-Benzyl-8-hydroxy-2-[(4-carboxybenzyl)thio]adenine, reference compound]	1 µM		
CCCCOc1nc(N)c2nc(O)n(Cc3ccc(C(=O)O)c(C(=O)O)c3)c2n1 [compound 23, 2-Butoxy-9-(3,4-dicarboxylbenzyl)-8-hydroxyadenine, reference compound]	0.1 µM		
Nc1nc(SCc2ccc(CC(=O)O)cc2)nc2c1nc(O)n2Cc1ccccc1 [compound 37, 9-Benzyl-8-hydroxy-2-[(4-carboxymethylbenzyl)thio]adenine, reference compound]	1 µM		
CCCCOc1nc(N)c2nc(O)n(Cc3ccc(C(N)=O)nc3)c2n1 [Example 83, 2-Butoxy-9-{(6-carbamoyl-3-pyridyl)methyl}-8-hydroxyadenine]	0.0003 µM		
COCCOc1nc(N)c2nc(O)n(Cc3cccc(CC(=O)O)c3)c2n1 [Comparative example 27, 9-(3-Carboxymethylbenzyl)-8-hydroxy-2-(2-methoxyethoxy)adenine, reference compound]	0.3 µM		
CCCCOc1nc(N)c2nc(O)n(Cc3cccc(CCC(=O)O)c3)c2n1 [compound 20, reference compound]	0.03 µM		
Nc1nc(CCC(=O)O)nc2c1nc(O)n2Cc1ccccc1 [Comparative example 15, 9-Benzyl-2-(2-carboxyethyl)-8-hydroxyadenine, reference compound]	1 µM		
Nc1nc(SCc2cccc(CC(=O)O)c2)nc2c1nc(O)n2Cc1ccccc1 [compound 36, 9-Benzyl-8-hydroxy-2-[(3-carboxymethylbenzyl)thio]adenine, reference compound]	3 µM		
CCCCOc1nc(N)c2nc(O)n(Cc3ccc(N4CCC(C(=O)O)CC4)nc3)c2n1 [compound 21, reference compound]	0.003 µM		
CCCCOc1nc(N)c2nc(O)n(Cc3ccc(CC(N)=O)cc3)c2n1 [Example 76, 2-Butoxy-8-hydroxy-9-(4-carbamoylmethylbenzyl)adenine]	0.0001 µM		
COC(=O)c1ccc(CSc2nc(N)c3nc(O)n(Cc4ccccc4)c3n2)cc1 [Example 104, 9-Benzyl-8-hydroxy-2-[(4-methoxycarbonylbenzyl)thio]adenine]	0.1 µM		
Nc1nc(SCC(=O)N2CCOCC2)nc2c1nc(O)n2Cc1ccccc1 [Example 52, 9-Benzyl-8-hydroxy-2-(morphorinocarbonylmethyl)thioadenine]		24%	
CCOC(=O)CCCCSc1nc(N)c2nc(O)n(Cc3ccccc3)c2n1 [Example 57, 9-Benzyl-2-(4-ethoxycarbonylbutyl)thio-8-hydroxyadenine]		3%	
CCCCOc1nc(N)c2nc(O)n(Cc3ccc(OCC(=O)OC)c(Br)c3)c2n1 [Example 23, 2-Butoxy-8-hydroxy-9-{3-bromo-4-(methoxycarbonylmethoxy)benzyl}adenine]	0.1 µM		
CCCCOc1nc(N)c2nc(O)n(Cc3ccc(N4CCC(C(=O)OC)CC4)nc3)c2n1 [Example 87, 2-Butoxy-8-hydroxy-9-{6-(4-methoxycarbonyl-1-piperidyl)-3-pyridylmethyl}adenine]	0.001 µM		
